Results reported in patent US12139520B2 (priority 2020, dated 2024).
Numbered stars: 1 amine (or outer) side, 2 acyl side, 3 side chain; on linkers, the order of the positions; unused ones are H or OH. Bridge positions count the residues as written; N and C are the ends. Square brackets hold non-standard residues; d marks the D form. Peptide text beside a SMILES is read from it. * marks the point of attachment. C20 diacid = O=C(O)CCCCCCCCCCCCCCCCCCC(=O)*; γGlu = O=C(O)[C@H](CCC(=O)[*:2])N[*:1]; Hyp = O=C(O)[C@@H]1C[C@@H](O)CN1

Tests used:
hAMY3 receptor = target: T1, hAMY3 receptor (Homo sapiens, UniProt O60896+P30988); assay: cAMP assay for in vitro receptor activation, hAMY3-R; assay type: cell-based; conditions: cAMP assay, hAMY3 receptor; read-out: hAMY3R EC50
T1 sequence (P30988 25-474): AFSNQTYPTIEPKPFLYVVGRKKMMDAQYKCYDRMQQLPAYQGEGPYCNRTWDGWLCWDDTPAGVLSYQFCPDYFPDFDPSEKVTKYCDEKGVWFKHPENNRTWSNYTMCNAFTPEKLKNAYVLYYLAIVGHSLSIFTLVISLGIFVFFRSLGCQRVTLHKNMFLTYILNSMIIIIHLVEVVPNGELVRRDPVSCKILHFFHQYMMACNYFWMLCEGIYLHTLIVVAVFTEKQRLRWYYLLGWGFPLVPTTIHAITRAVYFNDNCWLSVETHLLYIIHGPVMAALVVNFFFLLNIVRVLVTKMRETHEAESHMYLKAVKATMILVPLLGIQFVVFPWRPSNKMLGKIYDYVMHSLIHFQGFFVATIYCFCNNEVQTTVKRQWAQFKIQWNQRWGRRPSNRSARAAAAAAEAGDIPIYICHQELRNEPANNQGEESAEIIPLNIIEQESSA
T1 sequence (O60896 24-148 partner): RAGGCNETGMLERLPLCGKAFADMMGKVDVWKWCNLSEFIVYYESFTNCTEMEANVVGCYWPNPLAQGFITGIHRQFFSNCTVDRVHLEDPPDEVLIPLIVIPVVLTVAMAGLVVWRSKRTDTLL
How it was run: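 Thawed cells from a sub-cloned monoclonal hAMY3-overexpressing line are plated in DPBS containing 0.05% casein and 0.5 mM IBMX. Test compounds are added immediately at graded doses for 30 min at room temperature. Reagents for cAMP detection are then added, and TR-FRET is recorded after one hour.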

hAM1 receptor = hAM1 receptor (Homo sapiens, UniProt O60895+Q16602); assay: cAMP assay for in vitro receptor activation, hAM1-R; assay type: cell-based; conditions: cAMP assay, hAM1 receptor; read-out: hAM1R EC50
How it was run: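 Receptor activation, read as cAMP, was assessed in thawed cells of a monoclonal hAM1-overexpressing stable line, plated at 8000 cells/well in DPBS supplemented with 0.05% casein and 0.5 mM IBMX.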

Chain of hAM1 receptor (Q16602 23-461): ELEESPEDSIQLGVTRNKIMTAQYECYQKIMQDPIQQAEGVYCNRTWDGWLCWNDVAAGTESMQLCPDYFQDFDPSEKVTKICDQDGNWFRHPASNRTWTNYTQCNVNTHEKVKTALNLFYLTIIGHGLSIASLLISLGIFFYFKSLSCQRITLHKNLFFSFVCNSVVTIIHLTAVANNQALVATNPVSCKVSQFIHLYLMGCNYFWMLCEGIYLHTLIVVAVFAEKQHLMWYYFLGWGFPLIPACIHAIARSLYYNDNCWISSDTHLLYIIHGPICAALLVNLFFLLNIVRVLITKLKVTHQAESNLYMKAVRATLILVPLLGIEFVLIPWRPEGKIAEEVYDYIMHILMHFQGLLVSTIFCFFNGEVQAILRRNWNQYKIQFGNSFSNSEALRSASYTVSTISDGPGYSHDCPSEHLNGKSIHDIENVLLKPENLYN
Chain of hAM1 receptor (O60895 43-175 partner): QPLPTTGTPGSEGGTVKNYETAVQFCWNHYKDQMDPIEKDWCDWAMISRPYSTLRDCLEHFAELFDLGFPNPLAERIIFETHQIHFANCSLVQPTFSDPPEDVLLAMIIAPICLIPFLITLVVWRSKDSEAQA

Compound | EC50 (hAMY3 receptor) | EC50 (hAM1 receptor)
CC[C@H](C)[C@H](NC(=O)[C@H](CCC(N)=O)NC(=O)[C@H](Cc1c[nH]cn1)NC(=O)[C@H](C)NC(=O)[C@H](CC(C)C)NC(=O)[C@H](CCCNC(=N)N)NC(=O)[C@H](C)NC(=O)[C@@H](NC(=O)[C@@H](NC(=O)[C@@H]1CSSC[C@H](NC(=O)[C@H](CCCCN)NC(=O)CC[C@H](NC(=O)CCCCCCCCCCCCCCCCCCC(=O)O)C(=O)O)C(=O)N[C@@H](CC(N)=O)C(=O)N[C@@H]([C@@H](C)O)C(=O)N[C@@H](C)C(=O)N[C@@H]([C@@H](C)O)C(=O)N1)[C@@H](C)O)C(C)C)C(=O)N[C@@H](Cc1ccc(O)cc1)C(=O)N[C@@H](CCC(N)=O)C(=O)N[C@@H](Cc1ccccc1)C(=O)N[C@H](C(=O)N[C@@H](CC(=O)O)C(=O)N[C@@H](CCCCN)C(=O)N[C@@H](CC(=O)O)C(=O)N[C@@H](CCCCN)C(=O)N[C@@H](CC(=O)O)C(=O)N[C@@H](CC(N)=O)C(=O)N[C@H](C(=O)N[C@@H](C)C(=O)N1CCC[C@H]1C(=O)N1CCC[C@H]1C(=O)N[C@H](C(=O)N[C@@H](CC(N)=O)C(=O)N[C@H](C(=O)NCC(=O)N[C@@H](CO)C(=O)N[C@@H](CC(N)=O)C(=O)NCC(=O)N1C[C@H](O)C[C@H]1C(N)=O)C(C)C)[C@@H](C)O)C(C)C)[C@@H](C)O [compound 37] ({C20 diacid-γGlu}-KCNTATCTVARLAHQIYQFTDKDKDNVAPPTNVGSNG[Hyp]-NH2; disulfide 2-7) | 0.01 nM | > 5000 nM
CC[C@H](C)[C@H](NC(=O)[C@H](CCC(N)=O)NC(=O)[C@H](Cc1c[nH]cn1)NC(=O)[C@H](C)NC(=O)[C@H](CC(C)C)NC(=O)[C@H](CCCNC(=N)N)NC(=O)[C@H](CCC(N)=O)NC(=O)[C@@H](NC(=O)[C@@H](NC(=O)[C@@H]1CSSC[C@H](NC(=O)[C@H](CCCCN)NC(=O)CC[C@H](NC(=O)CCCCCCCCCCCCCCCCCCC(=O)O)C(=O)O)C(=O)N[C@@H](CC(N)=O)C(=O)N[C@@H]([C@@H](C)O)C(=O)N[C@@H](C)C(=O)N[C@@H]([C@@H](C)O)C(=O)N1)[C@@H](C)O)C(C)C)C(=O)N[C@@H](C)C(=O)N[C@@H](CCC(N)=O)C(=O)N[C@@H](Cc1ccccc1)C(=O)N[C@H](C(=O)N[C@@H](CC(=O)O)C(=O)N[C@@H](CCCCN)C(=O)N[C@@H](CC(=O)O)C(=O)N[C@@H](CCCCN)C(=O)N[C@@H](CC(=O)O)C(=O)N[C@@H](CC(N)=O)C(=O)N[C@H](C(=O)N[C@@H](C)C(=O)N1CCC[C@H]1C(=O)N1CCC[C@H]1C(=O)N[C@H](C(=O)N[C@@H](CC(N)=O)C(=O)N[C@H](C(=O)NCC(=O)N[C@@H](CO)C(=O)N[C@@H](CC(N)=O)C(=O)NCC(=O)N1C[C@H](O)C[C@H]1C(N)=O)C(C)C)[C@@H](C)O)C(C)C)[C@@H](C)O [compound 61] ({C20 diacid-γGlu}-KCNTATCTVQRLAHQIAQFTDKDKDNVAPPTNVGSNG[Hyp]-NH2; disulfide 2-7) | 0.012 nM | > 5000 nM
CC[C@H](C)[C@H](NC(=O)[C@H](CCC(N)=O)NC(=O)[C@H](Cc1c[nH]cn1)NC(=O)[C@H](C)NC(=O)[C@H](CC(C)C)NC(=O)[C@H](CCCNC(=N)N)NC(=O)[C@H](CCC(N)=O)NC(=O)[C@@H](NC(=O)[C@@H](NC(=O)[C@@H]1CSSC[C@H](NC(=O)[C@H](CCCCN)NC(=O)CC[C@H](NC(=O)CCCCCCCCCCCCCCCCCCC(=O)O)C(=O)O)C(=O)N[C@@H](CC(N)=O)C(=O)N[C@@H]([C@@H](C)O)C(=O)N[C@@H](C)C(=O)N[C@@H]([C@@H](C)O)C(=O)N1)[C@@H](C)O)C(C)C)C(=O)N[C@@H](CCC(N)=O)C(=O)N[C@@H](CCC(N)=O)C(=O)N[C@@H](Cc1ccccc1)C(=O)N[C@H](C(=O)N[C@@H](CC(=O)O)C(=O)N[C@@H](CCCCN)C(=O)N[C@@H](CC(=O)O)C(=O)N[C@@H](CCCCN)C(=O)N[C@@H](CC(=O)O)C(=O)N[C@@H](CC(N)=O)C(=O)N[C@H](C(=O)N[C@@H](C)C(=O)N1CCC[C@H]1C(=O)N1CCC[C@H]1C(=O)N[C@H](C(=O)N[C@@H](CC(N)=O)C(=O)N[C@H](C(=O)NCC(=O)N[C@@H](CO)C(=O)N[C@@H](CC(N)=O)C(=O)NCC(=O)N1C[C@H](O)C[C@H]1C(N)=O)C(C)C)[C@@H](C)O)C(C)C)[C@@H](C)O [compound 35] ({C20 diacid-γGlu}-KCNTATCTVQRLAHQIQQFTDKDKDNVAPPTNVGSNG[Hyp]-NH2; disulfide 2-7) | 0.009 nM | > 5000 nM

Continued, values first:

EC50 (hAMY3 receptor) | EC50 (hAM1 receptor) | Compound
0.017 nM | > 5000 nM | CC[C@H](C)[C@H](NC(=O)[C@H](CCC(N)=O)NC(=O)[C@H](CCC(=O)O)NC(=O)[C@H](C)NC(=O)[C@H](CC(C)C)NC(=O)[C@H](CCCNC(=N)N)NC(=O)[C@H](CCC(N)=O)NC(=O)[C@@H](NC(=O)[C@@H](NC(=O)[C@@H]1CSSC[C@H](NC(=O)[C@H](CCCCN)NC(=O)CC[C@H](NC(=O)CCCCCCCCCCCCCCCCCCC(=O)O)C(=O)O)C(=O)N[C@@H](CC(N)=O)C(=O)N[C@@H]([C@@H](C)O)C(=O)N[C@@H](C)C(=O)N[C@@H]([C@@H](C)O)C(=O)N1)[C@@H](C)O)C(C)C)C(=O)N[C@@H](Cc1ccc(O)cc1)C(=O)N[C@@H](CCC(N)=O)C(=O)N[C@@H](Cc1ccccc1)C(=O)N[C@H](C(=O)N[C@@H](CC(=O)O)C(=O)N[C@@H](CCCCN)C(=O)N[C@@H](CC(=O)O)C(=O)N[C@@H](CCCCN)C(=O)N[C@@H](CC(=O)O)C(=O)N[C@@H](CCC(N)=O)C(=O)N[C@H](C(=O)N[C@@H](C)C(=O)N1CCC[C@H]1C(=O)N1CCC[C@H]1C(=O)N[C@H](C(=O)N[C@@H](CC(N)=O)C(=O)N[C@H](C(=O)NCC(=O)N[C@@H](CO)C(=O)N[C@@H](CC(N)=O)C(=O)NCC(=O)N1C[C@H](O)C[C@H]1C(N)=O)C(C)C)[C@@H](C)O)C(C)C)[C@@H](C)O [compound 100] ({C20 diacid-γGlu}-KCNTATCTVQRLAEQIYQFTDKDKDQVAPPTNVGSNG[Hyp]-NH2; disulfide 2-7)
0.012 nM | > 5000 nM | CC[C@H](C)[C@H](NC(=O)[C@H](CCC(N)=O)NC(=O)[C@H](CCC(=O)O)NC(=O)[C@H](C)NC(=O)[C@H](CC(C)C)NC(=O)[C@H](CCCNC(=N)N)NC(=O)[C@H](CCC(N)=O)NC(=O)[C@@H](NC(=O)[C@@H](NC(=O)[C@@H]1CSSC[C@H](NC(=O)[C@@H](N)CCCCN)C(=O)N[C@@H](CC(N)=O)C(=O)N[C@@H]([C@@H](C)O)C(=O)N[C@@H](C)C(=O)N[C@@H]([C@@H](C)O)C(=O)N1)[C@@H](C)O)C(C)C)C(=O)N[C@@H](Cc1ccc(O)cc1)C(=O)N[C@@H](CCC(N)=O)C(=O)N[C@@H](Cc1ccccc1)C(=O)N[C@H](C(=O)N[C@@H](CC(=O)O)C(=O)N[C@@H](CCCCN)C(=O)N[C@@H](CC(=O)O)C(=O)N[C@@H](CCCCN)C(=O)N[C@@H](CC(=O)O)C(=O)N[C@@H](CC(N)=O)C(=O)N[C@H](C(=O)N[C@@H](CO)C(=O)N1CCC[C@H]1C(=O)N1CCC[C@H]1C(=O)N[C@H](C(=O)N[C@@H](CC(N)=O)C(=O)N[C@H](C(=O)NCC(=O)N[C@@H](CO)C(=O)N[C@@H](CC(N)=O)C(=O)NCC(=O)N1C[C@H](O)C[C@H]1C(N)=O)C(C)C)[C@@H](C)O)C(C)C)[C@@H](C)O [compound 66] (H-KCNTATCTVQRLAEQIYQFTDKDKDNVSPPTNVGSNG[Hyp]-NH2; disulfide 2-7)
0.016 nM | > 5000 nM | CC[C@H](C)[C@H](NC(=O)[C@H](CCC(N)=O)NC(=O)[C@H](CCC(=O)O)NC(=O)[C@H](C)NC(=O)[C@H](CC(C)C)NC(=O)[C@H](CCCNC(=N)N)NC(=O)[C@H](CCC(N)=O)NC(=O)[C@@H](NC(=O)[C@@H](NC(=O)[C@@H]1CSSC[C@H](NC(=O)[C@H](CCCCN)NC(=O)CC[C@H](NC(=O)CCCCCCCCCCCCCCCCCCC(=O)O)C(=O)O)C(=O)N[C@@H](C)C(=O)N[C@@H]([C@@H](C)O)C(=O)N[C@@H](C)C(=O)N[C@@H]([C@@H](C)O)C(=O)N1)[C@@H](C)O)C(C)C)C(=O)N[C@@H](Cc1ccc(O)cc1)C(=O)N[C@@H](CCC(N)=O)C(=O)N[C@@H](Cc1ccccc1)C(=O)N[C@H](C(=O)N[C@@H](CC(=O)O)C(=O)N[C@@H](CCCCN)C(=O)N[C@@H](CC(=O)O)C(=O)N[C@@H](CCCCN)C(=O)N[C@@H](CC(=O)O)C(=O)N[C@@H](CC(N)=O)C(=O)N[C@H](C(=O)N[C@@H](C)C(=O)N1CCC[C@H]1C(=O)N1CCC[C@H]1C(=O)N[C@H](C(=O)N[C@@H](CC(N)=O)C(=O)N[C@H](C(=O)NCC(=O)N[C@@H](CO)C(=O)N[C@@H](CC(N)=O)C(=O)NCC(=O)N1C[C@H](O)C[C@H]1C(N)=O)C(C)C)[C@@H](C)O)C(C)C)[C@@H](C)O [compound 97] ({C20 diacid-γGlu}-KCATATCTVQRLAEQIYQFTDKDKDNVAPPTNVGSNG[Hyp]-NH2; disulfide 2-7)
